{
  "source": "PubChem BioAssay AID1259409",
  "about": "(Chemical Carcinogenesis Research Information System (CCRIS), 2018)",
  "origin": "cited, not measured here",
  "tested_on": "rodent chemically induced tumor inhibition, incidence and multiplicity",
  "experiment": "CCRIS tumor inhibitor studies",
  "details": "Route [Inhibitor]: ORAL, Species: RAT",
  "note": "Values joined by “and” are separate entries in the source; they are usually repeats but may differ in a detail not shown here. Identical values can stand only once.",
  "data": [
    {"smiles": "CC1=C(/C=C/C(C)=C/C=C/C(C)=C/C(=O)Nc2ccc(O)cc2)C(C)(C)CCC1", "values": [
      {"measurement": "tumour outcome (control, treated, inhibition, significance)", "setting": "Carcinogen: N-METHYL-N'-NITROSOUREA, 684-93-5, Dose [Inhibitor]: 0, 782 MG/KG IN DIET FOR DURATION OF STUDY BEGINNING 60 D PRIOR TO CARCINOGEN DOSE (STUDY DURATION: 240 D), Strain/Sex: SPRAGUE-DAWLEY/FEMALE, Target Tissue: Type of Lesion: MAMMARY GLAND: TUMOR, Dose [Carcinogen]: 50 MG/KG BW ONCE, Promoter: NONE USED", "result": "80%, 28%, 65%, p<0.oo5 and 68%, 42%, 38%, p<0.005"},
      {"measurement": "tumour outcome (control, treated, inhibition, significance)", "setting": "Carcinogen: N-METHYL-N-NITROSOUREA [684-93-5], Dose [Inhibitor]: 2 MMOL/KG IN DIET FOR 6 WK BEGINNING 4 WK POST LAST CARCINOGEN DOSE (STUDY DURATION: 11 WK), Strain/Sex: SPRAGUE-DAWLEY/FEMALE, Target Tissue: Type of Lesion: MAMMARY GLAND: CARCINOMA, Dose [Carcinogen]: 50 MG/KG BW IP 1X/WK FOR 2 WK (STUDY DURATION: 11 WK), Promoter: NONE", "result": "95.4%, 87.5%, 8.3%"},
      {"measurement": "tumour outcome (control, treated, inhibition, significance)", "setting": "Carcinogen: N-METHYL-N-NITROSOUREA [684-93-5], Dose [Inhibitor]: 2 MMOL/KG IN DIET FOR 10 WK BEGINNING 2 D POST LAST CARCINOGEN DOSE (STUDY DURATION: 11 WK), Strain/Sex: SPRAGUE-DAWLEY/FEMALE, Target Tissue: Type of Lesion: MAMMARY GLAND: CARCINOMA, Dose [Carcinogen]: 50 MG/KG BW IP 1X/WK FOR 2 WK (STUDY DURATION: 11 WK), Promoter: NONE", "result": "95.4%, 45.0%, 53%, p<0.05"},
      {"measurement": "tumour outcome (control, treated, inhibition, significance)", "setting": "Carcinogen: N-METHYL-N-NITROSOUREA [684-93-5], Dose [Inhibitor]: 196 MG/KG DIET BEGINNING 7 D PRIOR TO CARCINOGEN DOSE (STUDY DURATION: 187 D), Strain/Sex: SPRAGUE-DAWLEY/FEMALE, Target Tissue: Type of Lesion: MAMMARY GLAND: ADENOCARCINOMA, Dose [Carcinogen]: 50 MG/KG BW ONCE AT 100 D OF AGE", "result": "23/40 (57%), 17/40 (43%), 24.6%,p<0.01"},
      {"measurement": "tumour outcome (control, treated, inhibition, significance)", "setting": "Carcinogen: N-METHYL-N-NITROSOUREA [684-93-5], Dose [Inhibitor]: 586 MG/KG DIET BEGINNING 3 D POST-CARCINOGEN DOSE (STUDY DURATION: 150 D), Strain/Sex: SPRAGUE-DAWLEY/FEMALE, Target Tissue: Type of Lesion: MAMMARY GLAND: ADENOCARCINOMA, Dose [Carcinogen]: 50 MG/KG BW ONCE AT 50 D OF AGE", "result": "25/25 (100%), 24/25 (96%), 4%, not significant"},
      {"measurement": "tumour outcome (control, treated, inhibition, significance)", "setting": "Carcinogen: N-METHYL-N-NITROSOUREA, 684-93-5, Dose [Inhibitor]: 0, 1 MMOL/KG IN DIET FOR 7 MO BEGINNING 7 MO POST CARCINOGEN DOSE (STUDY DURATION: 14 MO), Strain/Sex: LOBUND WISTAR/MALE, Target Tissue: Type of Lesion: PROSTATE: ADENOCARCINOMA, Dose [Carcinogen]: 30 MG/KG BW ONCE, Promoter: TESTOSTERONE PROPIONATE, 57-85-2", "result": "16/18 (89%), 4/19 (21%), 76%, p<0.001"},
      {"measurement": "tumour outcome (control, treated, inhibition, significance)", "setting": "Carcinogen: N-METHYL-N-NITROSOUREA, 684-93-5, Dose [Inhibitor]: 0, 328 MG/KG OF DIET FOR DURATION OF STUDY BEGINNING 1 WK PRIOR TO CARCINOGEN TREATMENT (STUDY DURATION: 117 D), Strain/Sex: SPRAGUE-DAWLEY/FEMALE, Target Tissue: Type of Lesion: MAMMARY GLAND: ADENOCARCINOMA, Dose [Carcinogen]: 50 MG/KG BW ONCE, Promoter: NONE USED", "result": "100%, 84%, 16%, not significant"},
      {"measurement": "tumour outcome (control, treated, inhibition, significance)", "setting": "Carcinogen: N-METHYL-N-NITROSOUREA, 684-93-5, Dose [Inhibitor]: 0, 391 MG/KG DIET BEGINNING AFTER THE SURGICAL REMOVAL OF THE FIRST PALPABLE TUMOR (STUDY DURATION: LIFETIME), Strain/Sex: SPRAGUE-DAWLEY/FEMALE, Target Tissue: Type of Lesion: MAMMARY GLAND: TUMOR, Dose [Carcinogen]: 35 MG/KG ONCE AT 50 DAYS OF AGE, Promoter: NONE USED", "result": "93%, 95%, -2%, not calculated"},
      {"measurement": "tumour outcome (control, treated, inhibition, significance)", "setting": "Carcinogen: N-METHYL-N-NITROSOUREA, 684-93-5, Dose [Inhibitor]: 0, 782 MG/KG DIET BEGINNING AFTER THE SURGICAL REMOVAL OF THE FIRST PALPABLE TUMOR (STUDY DURATION: LIFETIME), Strain/Sex: SPRAGUE-DAWLEY/FEMALE, Target Tissue: Type of Lesion: MAMMARY GLAND: TUMOR, Dose [Carcinogen]: 35 MG/KG ONCE AT 50 DAYS OF AGE, Promoter: NONE USED", "result": "93%, 89%, 4%, not calculated"},
      {"measurement": "tumour outcome (control, treated, inhibition, significance)", "setting": "Carcinogen: N-METHYL-N-NITROSOUREA, 684-93-5, Dose [Inhibitor]: 0, 782 MG/KG DIET REDUCED TO 391 MG/KG DIET 2 WK POST CARCINOGEN DOSE (STUDY DURATION: 450 D), Strain/Sex: WISTAR-UNILEVER/MALE, Target Tissue: Type of Lesion: PROSTATE/SEMINAL VESICLE: ADENOCARCINOMA, Dose [Carcinogen]: 50 MG/KG BW ONCE, Promoter: TESTOSTERONE PROPIONATE, 57-85-2", "result": "67%, 62%, 7%, not significant"},
      {"measurement": "tumour outcome (control, treated, inhibition, significance)", "setting": "Carcinogen: N-METHYL-N-NITROSOUREA, 684-93-5, Dose [Inhibitor]: 0, 782 MG/KG OF CASEIN-BASED AIN-76A DIET FOR DURATION OF STUDY BEGINNING 7 D POST CARCINOGEN DOSE (STUDY DURATION: 25 W, Strain/Sex: F344/FEMALE, Target Tissue: Type of Lesion: MAMMARY GLAND: TUMOR, Dose [Carcinogen]: 45 MG/KG BW ONCE AT 5O D OF AGE, Promoter: NONE USED", "result": "18/25 (72%), 20/25 (80%), -11%, not significant"},
      {"measurement": "tumour outcome (control, treated, inhibition, significance)", "setting": "Carcinogen: N-METHYL-N-NITROSOUREA, 684-93-5, Dose [Inhibitor]: 0, 782 MG/KG OF DIET FOR DURATION OF STUDY BEGINNING 1 WK PRIOR TO CARCINOGEN TREATMENT (STUDY DURATION: 117 D), Strain/Sex: SPRAGUE-DAWLEY/FEMALE, Target Tissue: Type of Lesion: MAMMARY GLAND: ADENOCARCINOMA, Dose [Carcinogen]: 50 MG/KG BW ONCE, Promoter: NONE USED", "result": "100%, 42%, 58%, not calculated"},
      {"measurement": "tumour outcome (control, treated, inhibition, significance)", "setting": "Carcinogen: N-METHYL-N-NITROSOUREA, 684-93-5, Dose [Inhibitor]: 0, 782 MG/KG OF GRAIN-BASED NIH-07 DIET FOR DURATION OF STUDY BEGINNING 7 D PRIOR TO CARCINOGEN DOSE (STUDY DURATION: 26, Strain/Sex: F344/FEMALE, Target Tissue: Type of Lesion: MAMMARY GLAND: TUMOR, Dose [Carcinogen]: 45 MG/KG BW ONCE AT 50 D OF AGE, Promoter: NONE USED", "result": "13/25 (52%), 7/25 (28%), 46%, not significant"}
    ]}
  ]
}
